Columns and labels:
Assay type in all cases: in vivo
Nilaparvata lugens = Nilaparvata lugens spray test (NILALU); details: 4 g/ha, 4 dat
Experimental: (§1) [table] To produce an appropriate active ingredient formulation, 1 part by weight of active ingredient is dissolved with the specified parts by weight of solvent and made up with water containing an emulsifier concentration of 1000 ppm until the desired concentration is attained. To produce further test concentrations, the mixture is diluted with emulsifier-containing water. If addition of ammonium salts or/and penetrants is required, these are each added to the preparation solution in a concentration of 1000 ppm. Rice plants (Oryza sativa) are sprayed with an active ingredient formulation of the desired concentration and then populated with larvae of the brown planthopper (Nilaparvata lugens). After the desired time, the efficacy in % is determined. 100% means that all planthoppers have been killed; 0% means that no planthoppers have been killed.

Meloidogyne incognita = Meloidogyne incognita test (MELGIN); details: 14 days (14 dat); for pest or weed control at 20 ppm: Meloidogyne incognita, 336 h, read-out: efficacy (nematicidal, gall formation)
Experimental: [table] To produce a suitable active ingredient formulation, 1 part by weight of active ingredient is mixed with the stated amount of solvent and the concentrate is diluted to the desired concentration with water. Vessels are filled with sand, active ingredient solution, an egg/larvae suspension of the southern root-knot nematode (Meloidogyne incognita) and lettuce seeds. The lettuce seeds germinate and the plants develop. The galls develop on the roots. After 14 days, the nematicidal efficacy in % is determined by the formation of galls. 100% means that no galls were found; 0% means that the number of galls on the treated plants corresponds to the untreated control. [table] To produce an appropriate active ingredient formulation, 1 part by weight of active ingredient is mixed with the specified amount of solvent and the concentrate is diluted to the desired concentration with water. Vessels are filled with sand, active ingredient solution, an egg/larvae suspension of the southern root-knot nematode (Meloidogyne incognita) and lettuce seeds. The lettuce seeds germinate and the plants develop. The root-knots develop on the roots. After the desired time, the nematicidal effect is determined from the formation of root-knots in %. 100% means that no root-knots were found; 0% means that the number of root-knots on the treated plants corresponds to that on the untreated control.

Phaedon cochleariae = Phaedon cochleariae spray test (PHAECO), Chinese cabbage leaf discs; set-up: key to repellent effect flag: REP = repellent effect; details: for pest or weed control at 100 g/ha: read-out: efficacy
Experimental: (§2) [table] To produce a suitable active ingredient formulation, 1 part by weight of active ingredient is dissolved with the specified parts by weight of solvent and made up to the desired concentration with water containing an emulsifier concentration of 1000 ppm. To produce further test concentrations, the formulation is diluted with emulsifier-containing water. Discs of Chinese cabbage leaves (Brassica pekinensis) are sprayed with an active ingredient formulation of the desired concentration and, after drying, populated with larvae of the mustard beetle (Phaedon cochleariae). After 7 days, the efficacy in % is determined. 100% means that all the beetle larvae have been killed; 0% means that no beetle larvae have been killed. [table] To produce an appropriate active ingredient formulation, 1 part by weight of active ingredient is dissolved with the stated parts by weight of solvent and made up with water containing an emulsifier concentration of 1000 ppm until the desired concentration is attained. For production of further test concentrations, the mixture is diluted with emulsifier-containing water. Discs of chinese cabbage leaves (Brassica pekinensis) are sprayed with an active ingredient formulation of the desired concentration and, after drying, populated with larvae of the mustard beetle (Phaedon cochleariae). After the desired time, the efficacy in % is determined. 100% means that all beetle larvae have been killed; 0% means that no beetle larvae have been killed.

Aphis gossypii = Aphis gossypii spray test (APHIGO), cotton plants; details: 6 dat; for Emax at 0.8 ppm: Aphis gossypii, 144 h, read-out: % efficacy
Experimental: as §1, with “Cotton” for “Rice”, “(Gossypium hirsutum) severely infested by the cotton aphid (Aphis gossypii)” for “(Oryza sativa)”, “concentration.” for “concentration and then populated with larvae of the brown planthopper (Nilaparvata lugens).”, “kill” for “efficacy”, “aphids” for “planthoppers”

Myzus persicae [1] = experiment: Myzus persicae spray test (MYZUPE), Chinese cabbage leaf discs; details: for pest or weed control at 20 g/ha / pest or weed control at 100 g/ha: Myzus persicae, foliar, 120 h, 5 days (5 dat), read-out: efficacy
Experimental: as §2, with “pekinensis) infested by all stages of the green peach aphid (Myzus persicae)” for “pekinensis)”, “concentration.” for “concentration and, after drying, populated with larvae of the mustard beetle (Phaedon cochleariae).”, “5” for “7”, “aphids” for “beetle larvae”

Myzus persicae [2] = experiment: Myzus persicae spray test (MYZUPE S), bell pepper plants; details: 144 h, 0.8 ppm, 6 dat, read-out: % efficacy
Experimental: [table] To produce an appropriate active ingredient formulation, 1 part by weight of active ingredient is dissolved with the specified parts by weight of solvent and made up with water containing an emulsifier concentration of 1000 ppm until the desired concentration is attained. To produce further test concentrations, the mixture is diluted with emulsifier-containing water. If addition of ammonium salts or/and penetrants is required, these are each added to the preparation solution in a concentration of 1000 ppm. Bell pepper plants (Capsicum annuum) severely infested by the green peach aphid (Myzus persicae) are treated by spraying with the active ingredient formulation in the desired concentration. After the desired time, the kill in % is determined. 100% means that all the animals have been killed; 0% means that no animals have been killed.

Lucilia cuprina = Lucilia cuprina test; details: 48 h, L1 larvae, after 2 days, read-out: efficacy (kill)
Experimental: Solvent: dimethyl sulfoxide To produce a suitable active ingredient formulation, 10 mg of active ingredient are mixed with 0.5 ml of dimethyl sulfoxide, and the concentrate is diluted with water to the desired concentration. About 20 L1 larvae of the Australian sheep blowfly (Lucilia cuprina) are transferred into a test vessel containing minced horsemeat and the active ingredient formulation of the desired concentration. After 2 days, the kill in % is determined. 100% means that all the larvae have been killed; 0% means that no larvae have been killed.

Myzus persicae [3] = experiment: Myzus persicae oral test; details: 120 h, after 5 days, read-out: efficacy
Experimental: [table] To produce a suitable active ingredient formulation, 1 part by weight of active ingredient is dissolved with the stated parts by weight of solvent and made up to the desired concentration with water. 50 μl of the active ingredient preparation are transferred into microtitre plates and made up to a final volume of 200 μl with 150 μl of IPL41 insect medium (33%+15% sugar). Subsequently, the plates are sealed with parafilm, which a mixed population of green peach aphids (Myzus persicae) within a second microtitre plate is able to puncture and imbibe the solution. After 5 days, the efficacy in % is determined. 100% means that all the aphids have been killed; 0% means that no aphids have been killed.

Nezara viridula = Nezara viridula spray test (NEZARA / NEZAVI); details: Nezara viridula, 96 h, 4 dat, read-out: % efficacy
Experimental: as §1, with “Barley” for “Rice”, “(Hordeum vulgare) infected with larvae of the southern green shield bug (Nezara viridula)” for “(Oryza sativa)”, “concentration.” for “concentration and then populated with larvae of the brown planthopper (Nilaparvata lugens).”, “bugs” for “planthoppers”

[4] = Phaedon cochleariae, foliar, 168 h, 100 g/ha, 7 days (7 dat)
[5] = Phaedon cochleariae, foliar, 168 h, PHAECO, 20 g/ha, 7 dat
[6] = Phaedon cochleariae, foliar, 168 h, PHAECO, 20 g/ha, 7 dat, read-out: % efficacy

With `CCS(=O)(=O)c1ccc(C(=O)NC)nc1-c1nc2cc(C(F)(F)C(F)(F)F)nnc2n1C` [Ex. I-39 from WO2017/025419, reference compound] the “% efficacy” value (Nilaparvata lugens) was 0%, the “efficacy (nematicidal, gall formation)” value (Meloidogyne incognita; 20 ppm) was 0% and the efficacy (Phaedon cochleariae; 100 g/ha, 7 days (7 dat)) was 0%. The “% efficacy” value (Phaedon cochleariae; PHAECO, 20 g/ha, 7 dat) was 0%, the “% efficacy” value (Aphis gossypii; 0.8 ppm) was 0% and the “% efficacy” value (Aphis gossypii; 4 ppm) was 55%. The “% efficacy” value (Myzus persicae [1]; MYZUPE, 4 g/ha, 5 dat) was 0%.
`CCS(=O)(=O)c1ccc(C(=O)N(C)C)nc1-c1nc2cc(C(F)(F)C(F)(F)F)nnc2n1C` [Example I-05] showed an Emax at 0.8 ppm (Myzus persicae [2]) of 95%, a pest or weed control at 100 ppm (Lucilia cuprina) of 100% and a pest or weed control at 0.8 ppm (Myzus persicae [3]) of 100%. The pest or weed control at 100 g/ha (Phaedon cochleariae; [4]) was 100%, the Emax at 0.8 ppm (Aphis gossypii; 0.8 ppm) was 65% and the pest or weed control at 20 g/ha (Myzus persicae [1]) was 90%. For the same molecule, the pest or weed control at 100 g/ha (Myzus persicae [1]) was 90%.
With `CNC(=O)c1ccc(S(C)(=O)=O)c(-c2nc3cc(C(F)(F)C(F)(F)F)nnc3n2C)n1` [Example I-06] the pest or weed control at 100 ppm (Lucilia cuprina) was 95%, the pest or weed control at 0.8 ppm (Myzus persicae [3]) was 100% and the pest or weed control at 100 g/ha (Phaedon cochleariae; [4]) was 67%. It also gave a pest or weed control at 20 g/ha (Myzus persicae [1]) of 70% and a pest or weed control at 100 g/ha (Myzus persicae [1]) of 90%.
For `Cn1c(-c2nc(C(=O)NC3CC3)ccc2S(C)(=O)=O)nc2cc(C(F)(F)C(F)(F)F)nnc21` [Example I-07], the pest or weed control at 0.8 ppm (Myzus persicae [3]) was 90%, the repellent effect flag (Phaedon cochleariae; PHAECO, 20 g/ha, 7 dat) was “REP” and the pest or weed control at 100 g/ha (Phaedon cochleariae; [4]) was 100%. The percent efficacy (larval mortality) at a fixed application rate at 20 g/ha (Phaedon cochleariae; [5]) was 100%.
With `CCNC(=O)c1ccc(S(C)(=O)=O)c(-c2nc3cc(C(F)(F)C(F)(F)F)nnc3n2C)n1` [Example I-14] the pest or weed control at 100 ppm (Lucilia cuprina) was 90%, the pest or weed control at 0.8 ppm (Myzus persicae [3]) was 90% and the pest or weed control at 100 g/ha (Phaedon cochleariae; [4]) was 100%. For the same molecule, the Emax at 20 g/ha (Phaedon cochleariae; [6]) was 83%.
For `CCS(=O)(=O)c1ccc(N(C)C(=O)N(C)C)nc1-c1nc2cc(C(F)(F)C(F)(F)F)nnc2n1C` [Example I-15], the pest or weed control at 20 ppm (Meloidogyne incognita) was 90%, the pest or weed control at 0.8 ppm (Myzus persicae [3]) was 100% and the pest or weed control at 100 g/ha (Phaedon cochleariae; [4]) was 100%. The Emax at 20 g/ha (Phaedon cochleariae; [6]) was 83%, the Emax at 0.8 g/ha (Nezara viridula) was 80% and the Emax at 4 g/ha (Nezara viridula) was 100%. For the same molecule, the pest or weed control at 20 g/ha (Myzus persicae [1]) was 90% and the pest or weed control at 100 g/ha (Myzus persicae [1]) was 100%.
For `CCS(=O)(=O)c1ccc(C(=O)N(C)C)nc1-c1nc2cc(C(F)(F)F)nnc2n1C` [reference compound], the Emax at 0.8 ppm (Myzus persicae [2]) was 50%, the pest or weed control at 100 g/ha (Phaedon cochleariae; [4]) was 33% and the Emax at 0.8 ppm (Aphis gossypii; 0.8 ppm) was 0%.
`CNC(=O)c1ccc(S(C)(=O)=O)c(-c2nc3cc(C(F)(F)F)nnc3n2C)n1` [reference compound] showed a pest or weed control at 100 g/ha (Phaedon cochleariae; [4]) of 0%, a pest or weed control at 20 g/ha (Myzus persicae [1]) of 0% and a pest or weed control at 100 g/ha (Myzus persicae [1]) of 0%.
`Cn1c(-c2nc(C(=O)NC3CC3)ccc2S(C)(=O)=O)nc2cc(C(F)(F)F)nnc21` [reference compound] was tested, and the pest or weed control at 100 g/ha (Phaedon cochleariae; [4]) was 50% and the Emax at 20 g/ha (Phaedon cochleariae; [6]) was 0%.
`CN(C)C(=O)Nc1ccc(S(C)(=O)=O)c(-c2nc3cc(C(F)(F)F)nnc3n2C)n1` [reference compound] gave a pest or weed control at 20 ppm (Meloidogyne incognita) of 0%, a pest or weed control at 100 g/ha (Phaedon cochleariae; [4]) of 0% and a percent efficacy (larval mortality) at a fixed application rate at 20 g/ha (Phaedon cochleariae; [5]) of 0%. For the same molecule, the pest or weed control at 20 g/ha (Myzus persicae [1]) was 0% and the pest or weed control at 100 g/ha (Myzus persicae [1]) was 0%.
Molecule `CCNC(=O)Nc1ccc(S(=O)(=O)CC)c(-c2nc3cc(C(F)(F)F)nnc3n2C)n1` [reference compound] has a pest or weed control at 100 g/ha (Phaedon cochleariae; [4]) of 50%, an Emax at 4 g/ha (Phaedon cochleariae; Phaedon cochleariae, foliar, 168 h, PHAECO, 4 g/ha, 7 dat, read-out: % efficacy) of 0% and an Emax at 20 g/ha (Phaedon cochleariae; [6]) of 67%. The Emax at 4 g/ha (Nezara viridula) was 0%.
For `CCNC(=O)c1ccc(S(C)(=O)=O)c(-c2nc3cc(C(F)(F)F)nnc3n2C)n1` [reference compound], the pest or weed control at 100 g/ha (Phaedon cochleariae; [4]) was 0% and the percent efficacy (larval mortality) at a fixed application rate at 20 g/ha (Phaedon cochleariae; [5]) was 0%.
`CCS(=O)(=O)c1ccc(N(C)C(=O)N(C)C)nc1-c1nc2cc(C(F)(F)F)nnc2n1C` [reference compound] showed a pest or weed control at 100 g/ha (Phaedon cochleariae; [4]) of 0%, a percent efficacy (larval mortality) at a fixed application rate at 20 g/ha (Phaedon cochleariae; [5]) of 0% and an Emax at 0.8 g/ha (Nezara viridula) of 0%. The Emax at 4 g/ha (Nezara viridula) was 50%.

From patent US11089783B2, “2-(het)aryl-substituted fused heterocycle derivatives as pesticides” (Bayer Aktiengesellschaft, priority 2017, dated 2021)
